# According to publication PMC8287028 (Frontiers in Veterinary Science, 2021):
# What was measured:
# [1] = male beagles, 5 mg/kg 14C labeled apixaban orally; cited from earlier work
# citrated whole blood = assay: Tissue-factor activated thromboelastography (TF-TEG) on citrated whole blood of dosed dogs; assay type: in vivo, dog
# Experimental: Catheters were flushed with 0.9% saline, without heparin. […] Coagulation assays were performed on platelet-poor, citrated plasma samples by a reference laboratory (Comparative Coagulation Laboratory, Animal Health Diagnostic Center, Ithaca, NY). […] Residual, uninhibited Factor Xa cleaves the chromogenic substrate such that the inverse of the color change in the reaction mixture is proportional to the drug concentration in the test plasma. […] Assay controls, consisting of human plasma spiked with apixaban (STA Apixaban Controls, Diagnostica Stago) were analyzed before each batch of test samples to confirm assay performance. The apixaban levels in calibrators and controls are defined by the manufacturer from an internal reference assayed by HPLC-MS. […] A mechanical endpoint method (STA Compact, Diagnostica Stago) and human coagulation reagents were used to measure prothrombin time (Thromboplastin LI, Helena Diagnostics, Beaumont, TX) and activated partial thromboplastin time (Dade Actin FS, Dade Behring, Newark, DE). […] Tissue-factor (1:50,000 final dilution) activated TEG was performed using standard equipment (TEG-5000, Haemonetics, Braintree, MA) as previously reported ([35]), with assays conducted per established guidelines ([36]), with a modification to eliminate the rest time to facilitate rapid sample processing. Thromboelastography assays were conducted by experienced operators using four TEG channels and tracings terminated after maximum amplitude was established. Four values were extracted from TEG tracings: reaction time (R-time), clot formation time (K-time), clot formation angle (alpha), and maximum amplitude (MA). Pairwise comparisons between continuous variables were conducted with Wilcoxon matched-pairs signed rank test, while comparisons of more than two groups were conducted using the Friedman test with Dunn's post-hoc adjustment. Specifically, the Wilcoxon matched-pairs signed rank tests were used to compare the complete blood count and serum chemistry values between baseline and the +24 h time point. Comparisons of pharmacodynamic variables between baseline values and those at discrete sampling intervals were performed using the Friedman test with Dunn's post-hoc correction for multiple comparisons. […] Alpha was set at 0.05. Statistical analyses were performed using commercial software (Prism 9, GraphPad, La Jolla, CA).
structure (smiles),measurement,setting,value
COc1ccc(-n2nc(C(N)=O)c3c2C(=O)N(c2ccc(N4CCCCC4=O)cc2)CC3)cc1 [apixaban],excretion of the unchanged compound via gastrointestinal routes,[1],59%
same,excretion of the unchanged compound via renal route,[1],7%
same,TF-TEG K-time versus baseline,"citrated whole blood; IV 0.18 mg/kg, at 5 min",significantly different from baseline
same,TF-TEG R-time versus baseline,"citrated whole blood; IV 0.18 mg/kg, at 5 min",significantly different from baseline
same,TF-TEG alpha angle versus baseline,"citrated whole blood; IV 0.18 mg/kg, at 5 min",significantly different from baseline
same,TF-TEG R-time versus baseline,"citrated whole blood; IV 0.18 mg/kg, at 15 min ([…])",significantly prolonged
same,TF-TEG tracings,citrated whole blood; PO 0.2 mg/kg,not consistently affected
same,TF-TEG R-time versus baseline,"citrated whole blood; PO 0.2 mg/kg, at the 12-h timepoint",significantly different from baseline
